Experiment [1] can be described thus: Inhibition of Saccharomyces cerevisiae alpha-glucosidase using para-nitrophenyl-alpha-D-glucopyranoside as substrate preincubated for 15 mins followed by substrate addition measured after 30 mins by spectrophotometric method.
Experiment [2] in a line: Non-competitive inhibition of Saccharomyces cerevisiae alpha-glucosidase using para-nitrophenyl-alpha-D-glucopyranoside as substrate preincubated for 15 mins followed by substrate addition measured after 30 mins by Lineweaver-Burk plot analysis.

What is called IC50 is the point on the concentration scale where inhibition reaches its midpoint. Higher therefore signals a need for much substance. For orientation: Ki means a dissociation constant, usually derived from enzyme kinetics or from competition with a known ligand. A lower Ki goes with higher affinity.

In experiment [1], `OC(CSc1nnc(-c2ccco2)c(-c2ccco2)n1)Cn1c2ccccc2c2ccccc21` (stereo not drawn) yielded an IC50 of 17.7 µM.
For `OC(CSc1nnc(-c2cccc(Br)c2)c(-c2cccc(Br)c2)n1)Cn1c2ccccc2c2ccccc21` (stereo not drawn), the concentration for half-maximal inhibition (IC50) in experiment [1] is 20.1 µM.
The same measure, in the same setting: as for `OC(CSc1nnc(-c2ccc(F)cc2)c(-c2ccc(F)cc2)n1)Cn1c2ccccc2c2ccccc21` (stereo not drawn), the figure is 17.6 µM; as for `OC(CSc1nnc(-c2ccccc2F)c(-c2ccccc2F)n1)Cn1c2ccccc2c2ccccc21` (stereo not drawn), 21.1 µM; as for `O=[N+]([O-])c1ccc2c(c1)c1ccccc1n2CC(O)CSc1nnc(-c2ccccc2F)c(-c2ccccc2F)n1` (stereo not drawn), 22.1 µM.
Still for that read-out and setting: as for `OC(CSc1nnc(-c2ccccc2)c(-c2ccccc2)n1)Cn1c2ccc(Cl)cc2c2cc(Cl)ccc21` (stereo not drawn), the figure is 27.8 µM; as for `OC(CSc1nnc(-c2cccc(Br)c2)c(-c2cccc(Br)c2)n1)Cn1c2ccc(Cl)cc2c2cc(Cl)ccc21` (stereo not drawn), 19.2 µM.
On the same count and under the same terms, to `OC(CSc1nnc(-c2ccccc2Cl)c(-c2ccccc2Cl)n1)Cn1c2ccccc2c2ccccc21` (stereo not drawn) belongs 47.8 µM.
Compound `OC(CSc1nnc(-c2ccccc2)c(-c2ccccc2)n1)Cn1c2ccccc2c2ccccc21` (stereo not drawn) came in with an IC50 in experiment [1] of 31.3 µM.
The same measure, in the same setting: as for `OC(CSc1nnc(-c2cccc(F)c2)c(-c2cccc(F)c2)n1)Cn1c2ccc(Cl)cc2c2cc(Cl)ccc21` (stereo not drawn), the figure is 33.1 µM.
The same measure, in the same setting: as for `OC(CSc1nnc(-c2cccc(Br)c2)c(-c2cccc(Br)c2)n1)Cn1c2ccc(Br)cc2c2cc(Br)ccc21` (stereo not drawn), the figure is 9.56 µM.
Still for that read-out and setting: to `OC(CSc1nnc(-c2ccccc2)c(-c2ccccc2)n1)Cn1c2ccc(Br)cc2c2cc(Br)ccc21` (stereo not drawn) belongs 19.3 µM.
`OC(CSc1nnc(-c2ccco2)c(-c2ccco2)n1)Cn1c2ccc(Br)cc2c2cc(Br)ccc21` (stereo not drawn) displayed a half-maximal inhibitory concentration (IC50) in experiment [1] of 4.27 µM. Also, affinity in experiment [2] was put at a Ki of 4.43 µM.
For the compound `OC(CSc1nnc(-c2ccco2)c(-c2ccco2)n1)Cn1c2ccc(Cl)cc2c2cc(Cl)ccc21` (stereo not drawn), the IC50 in experiment [1] is 9.24 µM.
Same read-out and setting: to `O=[N+]([O-])c1ccc2c(c1)c1ccccc1n2CC(O)CSc1nnc(-c2ccccc2)c(-c2ccccc2)n1` (stereo not drawn) belongs 25 µM; to `OC(CSc1nnc(-c2ccccc2F)c(-c2ccccc2F)n1)Cn1c2ccc(Br)cc2c2cc(Br)ccc21` (stereo not drawn), 12.8 µM; to `C[C@@H]1O[C@@H](O[C@@H]2[C@@H](O)[C@H](O)[C@H](O[C@H]3[C@H](O)[C@@H](O)C(O)O[C@@H]3CO)O[C@H]2CO)[C@@H](O)[C@H](O)[C@H]1N[C@H]1C=C(CO)[C@@H](O)[C@H](O)[C@H]1O` (stereo partly drawn), 996 µM.

Values taken from ChEMBL document CHEMBL3797165, “Synthesis and biological evaluation of novel 1,2,4-triazine derivatives bearing carbazole moiety as potent α-glucosidase inhibitors” (Bioorg Med Chem Lett, 2016).
